Assay results reported in PMC11171933, “Rapid Determination of Kinetic Constants for Slow-Binding Inhibitors and Inactivators of Human Histone Deacetylase 8” (International Journal of Molecular Sciences, 2024).
Entries after “also recorded” stand apart in the source; their conditions may differ. Read-outs that look alike come from different tables or passages of the source.

Experiments:
HIV protease = test system: HIV protease; parameters: method as in PMID 17928344; details: HIV protease ref 18; cited from earlier work
human HDAC8 = target: T1, human HDAC8 (Homo sapiens, UniProt Q9BY41); assay: Time-dependent fluorometric HDAC8 enzyme activity assay (dose-response curves after different pre-incubation times); details: for Binding / inhibition mechanism classification: from time-dependent dose-response curves and kobs vs [I] plot; for kinact/KI: read-out: kinact/KI (M^−1s^−1); for kinact: read-out: kinact (min^−1)
T1 sequence (Q9BY41 1-377): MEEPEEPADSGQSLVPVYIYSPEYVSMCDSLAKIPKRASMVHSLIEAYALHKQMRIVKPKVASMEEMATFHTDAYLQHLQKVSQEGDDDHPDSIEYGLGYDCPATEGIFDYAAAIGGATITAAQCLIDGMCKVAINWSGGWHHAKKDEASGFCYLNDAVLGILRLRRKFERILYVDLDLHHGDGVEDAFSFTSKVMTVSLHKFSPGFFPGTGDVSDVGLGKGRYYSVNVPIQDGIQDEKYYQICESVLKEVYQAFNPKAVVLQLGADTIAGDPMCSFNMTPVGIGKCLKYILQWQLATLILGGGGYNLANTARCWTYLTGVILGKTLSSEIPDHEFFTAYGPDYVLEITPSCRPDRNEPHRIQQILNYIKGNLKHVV

[1] = parameters: method as in PMID 5970483; details: pH of 7.0 ref 48; cited from earlier work
[2] = parameters: method as in PMID 5970483; details: pH 8 ref 48; cited from earlier work
HDAC8 [3] = details: read-out: IC50 (µM) (Lit.), cited from earlier work
CYP3A4 [4] = target: T2, CYP3A4 (Homo sapiens, UniProt P08684); details: CYP3A4 inactivation ref 38, cited from earlier work
CYP3A4 [5] = target: T2, CYP3A4; assay: Inactivation kinetics of CYP3A4 (literature data and reanalysis)
CYP2C8 [6] = target: T3, CYP2C8 (Homo sapiens, UniProt P10632); details: CYP2C8 inactivation ref 36, cited from earlier work
T3 sequence (P10632 1-490): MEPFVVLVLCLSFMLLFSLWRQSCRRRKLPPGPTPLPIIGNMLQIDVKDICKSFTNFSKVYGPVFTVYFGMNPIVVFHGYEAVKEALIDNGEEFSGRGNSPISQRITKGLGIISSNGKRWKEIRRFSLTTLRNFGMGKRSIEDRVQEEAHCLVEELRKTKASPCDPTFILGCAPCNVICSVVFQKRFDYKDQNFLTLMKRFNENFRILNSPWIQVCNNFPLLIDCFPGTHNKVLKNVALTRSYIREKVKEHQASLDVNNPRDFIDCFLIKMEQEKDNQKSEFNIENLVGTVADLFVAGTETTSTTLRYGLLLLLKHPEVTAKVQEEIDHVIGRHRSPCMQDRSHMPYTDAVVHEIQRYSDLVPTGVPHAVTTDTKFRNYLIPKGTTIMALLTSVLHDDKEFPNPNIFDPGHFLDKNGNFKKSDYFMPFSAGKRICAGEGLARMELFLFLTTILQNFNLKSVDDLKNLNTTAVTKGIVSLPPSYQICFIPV

CYP2C8 [7] = target: T3, CYP2C8; assay: Inactivation kinetics of CYP2C8 (literature data and reanalysis)
HDAC8 [8] = target: HDAC8; parameters: method as in PMID 24882269; details: binding affinity to HDAC8 ref 41; cited from earlier work

T2 sequence (P08684 2-503): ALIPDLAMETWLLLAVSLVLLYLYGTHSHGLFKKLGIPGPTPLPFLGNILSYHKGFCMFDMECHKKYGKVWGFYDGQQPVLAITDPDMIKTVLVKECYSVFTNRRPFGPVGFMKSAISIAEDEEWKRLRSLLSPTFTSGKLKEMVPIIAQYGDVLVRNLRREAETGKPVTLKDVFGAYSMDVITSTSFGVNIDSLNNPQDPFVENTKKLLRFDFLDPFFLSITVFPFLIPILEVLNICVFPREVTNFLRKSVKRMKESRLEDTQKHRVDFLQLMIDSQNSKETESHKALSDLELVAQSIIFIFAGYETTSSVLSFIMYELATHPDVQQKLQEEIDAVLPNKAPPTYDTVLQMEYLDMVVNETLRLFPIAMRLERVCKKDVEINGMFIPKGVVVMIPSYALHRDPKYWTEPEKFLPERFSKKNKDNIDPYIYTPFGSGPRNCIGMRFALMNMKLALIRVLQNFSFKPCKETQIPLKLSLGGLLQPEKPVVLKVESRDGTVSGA

CC(C)CN(C[C@@H](O)[C@H](Cc1ccccc1)NC(=O)O[C@H]1CO[C@H]2OCC[C@H]21)S(=O)(=O)c1ccc(N)cc1 [darunavir]
residence time (RT) (HIV protease): 247 h

COc1ccc(CC(C#N)C(=O)O)cc1 (centres unmarked) [SVE27]
IC50 (human HDAC8): 2600 ± 400 nM | Ki (human HDAC8): 800 nM | Binding / inhibition mechanism classification (human HDAC8): fast reversible HDAC8 inhibitors; also recorded: fast reversible binding

CCN1C(=O)C=CC1=O [NEM, N-ethylmaleimide, reference compound]
rate constant, times lower than that of cysteine [1]: more than 100 times | second-order rate constant for N-ethylmaleimide reaction with cysteine [2]: 15,300 M^−1s^−1 | IC50 (human HDAC8): 700 to 42000 nM | Binding / inhibition mechanism classification (human HDAC8): unspecific one-step affinity labeling; also recorded: slow inactivation behavior | kinact/KI (human HDAC8): 133 ± 3 M⁻¹ s⁻¹

CC/C(=C(\c1ccccc1)c1ccc(OCCNC)cc1)c1ccccc1 [N-desmethy-ltamoxifen]
kinact (min^−1), Literature (CYP3A4 [4]): 0.08 min⁻¹ | Ki (CYP3A4 [4]; read-out: KI (µM), Literature): 2.6 µM | kinact (min^−1), Reanalysis (CYP3A4 [5]; CYP3A4, reanalysis of literature data (refs 37-39) with two-step fit of kobs vs [I]): 0.083 ± 0.007 min⁻¹ | Ki (CYP3A4 [5]; read-out: KI (µM), Reanalysis, CYP3A4, reanalysis of literature data (refs 37-39) with two-step fit of kobs vs [I]): 2.5 ± 1 µM

O=c1c2ccccc2[se]n1-c1ccccc1 [Ebselen, reference compound]
IC50 (human HDAC8): 80 ± 30 nM | Binding / inhibition mechanism classification (human HDAC8): rapidly inactivated HDAC8; also recorded: fast covalent inactivators | kinact (human HDAC8): > 2 min⁻¹

COC(=O)c1ccc(/C=C(\C#N)C(=O)C(F)(F)F)cc1 [SVE04]
IC50 (human HDAC8): 4200 ± 1100 nM | Ki (human HDAC8): 1300 nM | Binding / inhibition mechanism classification (human HDAC8): fast reversible HDAC8 inhibitors; also recorded: fast reversible binding

CC(C)=CCC/C(C)=C/COc1c2ccoc2cc2oc(=O)ccc12 [Bergamottin]
Ki (CYP3A4 [5]; human): 12 ± 5 µM | kinact (CYP3A4 [5]; human): 0.0065 s⁻¹

CNCCC=C1c2ccccc2CCc2ccccc21 [Nortriptyine]
kinact (min^−1), Literature (CYP2C8 [6]): 0.036 min⁻¹ | Ki (CYP2C8 [6]; read-out: KI (µM), Literature): 49.9 µM | kinact (min^−1), Reanalysis (CYP2C8 [7]; CYP2C8, reanalysis of literature data (ref 36) with two-step fit of kobs vs [I]): 0.044 ± 0.003 min⁻¹ | Ki (CYP2C8 [7]; read-out: KI (µM), Reanalysis, CYP2C8, reanalysis of literature data (ref 36) with two-step fit of kobs vs [I]): 66 ± 12 µM

COc1ccc(Cn2ccc3ccc(C(=O)NO)cc32)cc1 [PCI-34051, reference compound]
Binding / inhibition mechanism classification (human HDAC8): fast-reversible inhibitors | IC50 (HDAC8 [3]; literature value ref 43): […]

CC(C)(C)NC(=O)[C@@H]1CN(Cc2cccnc2)CCN1C[C@@H](O)C[C@@H](Cc1ccccc1)C(=O)N[C@H]1c2ccccc2C[C@H]1O [indinavir]
residence time (RT) (HIV protease): 0.3 h

O=C(CCCCCCC(=O)Nc1ccccc1)NO [SAHA, suberoylanilide hydroxamic acid, reference compound]
Binding / inhibition mechanism classification (human HDAC8): fast-reversible inhibitors

C#C[C@]1(O)CC[C@H]2[C@@H]3CCc4cc(O)ccc4[C@H]3CC[C@@]21C [Ethynyl-estradiol, reference compound]
Ki (CYP3A4 [5]; human): 5.4 ± 2.5 µM

Cc1cc(C)cc(CSc2nc(Cl)ns2)c1 [TJ-19-24]
IC50 (human HDAC8): 400 to 4000 nM | Ki (human HDAC8): 5900 ± 800 nM | Binding / inhibition mechanism classification (human HDAC8): slow two-step inactivators or reversible inhibitors, with a very low reverse isomerization rate; also recorded: slow covalent inactivator; also recorded: slow two-step inactivation | kinact (human HDAC8): 1 min⁻¹ | kinact/KI (human HDAC8): 2820 M⁻¹ s⁻¹

O=C(CCCCCCC(=O)C(F)(F)F)Nc1ccccc1 [SATFMK]
Kd (HDAC8 [8]): 5.6 nM | IC50 (HDAC8 [3]; literature value ref 42): 0.021 µM

Cc1cc(C)cc(CS(=O)(=O)c2nc(Cl)ns2)c1 [TJ-19-28]
IC50 (human HDAC8): 300 to 3000 nM | Ki (human HDAC8): 12000 ± 3000 nM | Binding / inhibition mechanism classification (human HDAC8): two-step inactivation mechanism; also recorded: irreversible inactivation mechanism | kinact (human HDAC8): 1.8 min⁻¹ | kinact/KI (human HDAC8): 2500 M⁻¹ s⁻¹

NNC(=O)c1ccncc1 [Isoniazid]
Ki (CYP2C8 [7]; human): 280 ± 40 µM | kinact (CYP2C8 [7]; human): 0.0006 s⁻¹

NNCCc1ccccc1 [Phenelzine]
Ki (CYP2C8 [7]; human): 0.84 ± 0.24 µM | kinact (CYP2C8 [7]; human): 0.0035 s⁻¹
